According to patent US6525001B1, “Substituted pyrimidine and pyridine herbicides” (Mid-American Commercialization Corporation, priority 1997, dated 2003):

Tests used:
Type in all cases: in vivo
Parameters in all cases: key: 0 is no effect; 10 is complete control
[1] = system: bedstraw (Galium aparine); assay: Test B pre-/postemergence
Source text: (§1) Seeds of bedstraw (Galium aparine), blackgrass (Alopecurus myosuroides), broadleaf signalgrass (Brachiaria decumbens), cocklebur (Xanthium strumarium), corn (Zea mays), crabgrass (Digitaria sanguinalis), giant foxtail (Setaria faberii), lambsquarters (Chenopodium album), momingglory (Ipomoea hederacea), pigweed (Amaranthus retroflexus), rape (Brassica napus), soybean (Glycine max), sugar beet (Beta vulgaris), velvetleaf (Abutilon theophrasti), wheat (Triticum aestivum), wild oat (Avena fatua) and purple nutsedge (Cyperus rotundus) tubers were planted and treated preemergence with test chemicals formulated in a non-phytotoxic solvent mixture which included a surfactant.
(§2) At the same time, these crop and weed species were also treated with postemergence applications of test chemicals formulated in the same manner. Plants ranged in height from 2 to 18 cm (1- to 4-leaf stage) for postemergence treatments. Plant species in the flood test consisted of rice (Oryza sativa), smallflower flatsedge (Cyperus difformis), duck salad (Heteranthera limosa) and bamyardgrass (Echinochloa crus-galli) grown to the 2-leaf stage for testing. Treated plants and controls were maintained in a greenhouse for twelve to sixteen days, after which all species were compared to controls and visually evaluated. Plant response ratings, summarized in Table B, are based on a scale of 0 to 10 where 0 is no effect and 10 is complete control. A dash (−) response means no test result.

[2] = system: blackgrass (Alopecurus myosuroides); assay: Test B pre-/postemergence
Source text: as §1, §2

[3] = system: broadleaf signalgrass (Brachiaria decumbens); assay: Test B pre-/postemergence
Source text: as §1, §2

[4] = system: cocklebur (Xanthium strumarium); assay: Test B pre-/postemergence
Source text: as §1, §2

corn (Zea mays) = assay: Test B pre-/postemergence
Source text: as §1, §2

[5] = system: crabgrass (Digitaria sanguinalis); assay: Test B pre-/postemergence
Source text: as §1, §2

[6] = system: giant foxtail (Setaria faberii); assay: Test B pre-/postemergence; conditions: for Plant response rating, Giant foxtail: Postemergence; for Giant foxtail plant response rating: Preemergence
Source text: as §1, §2

[7] = system: momingglory (Ipomoea hederacea); assay: Test B pre-/postemergence
Source text: as §1, §2

[8] = system: pigweed (Amaranthus retroflexus); assay: Test B pre-/postemergence
Source text: as §1, §2

[9] = system: purple nutsedge (Cyperus rotundus); assay: Test B pre-/postemergence
Source text: as §1, §2

rape (Brassica napus) = assay: Test B pre-/postemergence
Source text: as §1, §2

soybean (Glycine max) = assay: Test B pre-/postemergence
Source text: as §1, §2

[10] = system: sugar beet (Beta vulgaris); assay: Test B pre-/postemergence
Source text: as §1, §2

[11] = system: velvetleaf (Abutilon theophrasti); assay: Test B pre-/postemergence
Source text: as §1, §2

[12] = system: wheat (Triticum aestivum); assay: Test B pre-/postemergence
Source text: as §1, §2

wild oat (Avena fatua) = assay: Test B pre-/postemergence
Source text: as §1, §2

[13] = system: bamyardgrass (Echinochloa crus-galli); assay: Test B flood test
Method in brief: (§3)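 Plants were grown to the 2-leaf stage before treatment with test chemical, then held in a greenhouse for twelve to sixteen days. Injury was visually rated against untreated controls on a 0–10 scale, where 0 is no effect and 10 is complete control.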

[14] = system: duck salad (Heteranthera limosa); assay: Test B flood test
Method in brief: as §3

rice (Oryza sativa) = assay: Test B flood test
Method in brief: as §3

[15] = system: smallflower flatsedge (Cyperus difformis); assay: Test B flood test
Method in brief: as §3

[16] = Rate 62 g/ha, Postemergence (flood test)
[17] = Rate 125 g/ha, Postemergence, flood test
[18] = Rate 250 g/ha, Postemergence (flood test species)

COC(=O)C(c1cccc(C(F)(F)F)c1)c1nc(-c2ccc(C(F)(F)F)cc2)ncc1C (racemic) [Compound 18]
Plant response rating, Bedstraw ([1]; Rate 62 g/ha, Postemergence): 7 | Bedstraw plant response rating ([1]; Rate 62 g/ha, Preemergence): 0 | Plant response rating, Bedstraw ([1]; Rate 125 g/ha, Postemergence): 8 | Bedstraw plant response rating ([1]; Rate 125 g/ha, Preemergence): 2 | Plant response rating, Bedstraw ([1]; Rate 250 g/ha, Postemergence): 9 | Plant response rating, Bedstraw ([1]; Rate 250 g/ha, Preemergence): 5 | Plant response rating, Blackgrass ([2]; Rate 62 g/ha, Postemergence): 2 | Blackgrass plant response rating ([2]; Rate 62 g/ha, Preemergence): 0 | Plant response rating, Blackgrass ([2]; Rate 125 g/ha, Postemergence): 2 | Blackgrass plant response rating ([2]; Rate 125 g/ha, Preemergence): 0 | Plant response rating, Blackgrass ([2]; Rate 250 g/ha, Postemergence): 2 | Plant response rating, Blackgrass ([2]; Rate 250 g/ha, Preemergence): 1 | Plant response rating, B. signalgrass ([3]; Rate 62 g/ha, Postemergence): 2 | B. signalgrass plant response rating ([3]; Rate 62 g/ha, Preemergence): 0 | Plant response rating, B. signalgrass ([3]; Rate 125 g/ha, Postemergence): 2 | B. signalgrass plant response rating ([3]; Rate 125 g/ha, Preemergence): 1 | Plant response rating, B. signalgrass ([3]; Rate 250 g/ha, Postemergence): 3 | Plant response rating, B. signalgrass ([3]; Rate 250 g/ha, Preemergence): 2 | Plant response rating, Cocklebur ([4]; Rate 62 g/ha, Postemergence): 6 | Plant response rating, Cocklebur ([4]; Rate 125 g/ha, Postemergence): 7 | Plant response rating, Cocklebur ([4]; Rate 250 g/ha, Postemergence): 8 | Plant response rating, Cocklebur ([4]; Rate 250 g/ha, Preemergence): 0 | Plant response rating, Corn (corn (Zea mays); Rate 62 g/ha, Postemergence): 2 | Corn plant response rating (corn (Zea mays); Rate 62 g/ha, Preemergence): 0 | Plant response rating, Corn (corn (Zea mays); Rate 125 g/ha, Postemergence): 2 | Corn plant response rating (corn (Zea mays); Rate 125 g/ha, Preemergence): 0 | Plant response rating, Corn (corn (Zea mays); Rate 250 g/ha, Postemergence): 2 | Plant response rating, Corn (corn (Zea mays); Rate 250 g/ha, Preemergence): 0 | Plant response rating, Crabgrass ([5]; Rate 62 g/ha, Postemergence): 1 | Crabgrass plant response rating ([5]; Rate 62 g/ha, Preemergence): 0 | Plant response rating, Crabgrass ([5]; Rate 125 g/ha, Postemergence): 2 | Crabgrass plant response rating ([5]; Rate 125 g/ha, Preemergence): 0 | Plant response rating, Crabgrass ([5]; Rate 250 g/ha, Postemergence): 3 | Plant response rating, Crabgrass ([5]; Rate 250 g/ha, Preemergence): 6 | Plant response rating, Giant foxtail ([6]; Rate 62 g/ha): 1 | Giant foxtail plant response rating ([6]; Rate 62 g/ha): 0 | Plant response rating, Giant foxtail ([6]; Rate 125 g/ha): 1 | Giant foxtail plant response rating ([6]; Rate 125 g/ha): 0 | Plant response rating, Giant foxtail ([6]; Rate 250 g/ha): 1 | Plant response rating, Morningglory ([7]; Rate 62 g/ha, Postemergence): 3 | Morningglory plant response rating ([7]; Rate 62 g/ha, Preemergence): 1 | Plant response rating, Morningglory ([7]; Rate 125 g/ha, Postemergence): 8 | Morningglory plant response rating ([7]; Rate 125 g/ha, Preemergence): 4 | Plant response rating, Morningglory ([7]; Rate 250 g/ha, Postemergence): 8 | Plant response rating, Morningglory ([7]; Rate 250 g/ha, Preemergence): 6 | Plant response rating, Redroot pigweed ([8]; Rate 62 g/ha, Postemergence): 6 | Redroot pigweed plant response rating ([8]; Rate 62 g/ha, Preemergence): 0 | Plant response rating, Redroot pigweed ([8]; Rate 125 g/ha, Postemergence): 6 | Redroot pigweed plant response rating ([8]; Rate 125 g/ha, Preemergence): 3 | Plant response rating, Redroot pigweed ([8]; Rate 250 g/ha, Postemergence): 9 | Plant response rating, Redroot pigweed ([8]; Rate 250 g/ha, Preemergence): 7 | Plant response rating, Nutsedge ([9]; Rate 62 g/ha, Postemergence): 0 | Nutsedge plant response rating ([9]; Rate 62 g/ha, Preemergence): 0 | Plant response rating, Nutsedge ([9]; Rate 125 g/ha, Postemergence): 0 | Nutsedge plant response rating ([9]; Rate 125 g/ha, Preemergence): 0 | Plant response rating, Nutsedge ([9]; Rate 250 g/ha, Postemergence): 0 | Plant response rating, Nutsedge ([9]; Rate 250 g/ha, Preemergence): 0 | Plant response rating, Rape (rape (Brassica napus); Rate 62 g/ha, Postemergence): 4 | Rape plant response rating (rape (Brassica napus); Rate 62 g/ha, Preemergence): 0 | Plant response rating, Rape (rape (Brassica napus); Rate 125 g/ha, Postemergence): 7 | Rape plant response rating (rape (Brassica napus); Rate 125 g/ha, Preemergence): 0 | Plant response rating, Rape (rape (Brassica napus); Rate 250 g/ha, Postemergence): 9 | Plant response rating, Rape (rape (Brassica napus); Rate 250 g/ha, Preemergence): 0 | Plant response rating, Soybean (soybean (Glycine max); Rate 62 g/ha, Postemergence): 3 | Soybean plant response rating (soybean (Glycine max); Rate 62 g/ha, Preemergence): 0 | Plant response rating, Soybean (soybean (Glycine max); Rate 125 g/ha, Postemergence): 4 | Soybean plant response rating (soybean (Glycine max); Rate 125 g/ha, Preemergence): 0 | Plant response rating, Soybean (soybean (Glycine max); Rate 250 g/ha, Postemergence): 6 | Plant response rating, Soybean (soybean (Glycine max); Rate 250 g/ha, Preemergence): 0 | Plant response rating, Sugarbeets ([10]; Rate 62 g/ha, Postemergence): 7 | Sugarbeets plant response rating ([10]; Rate 62 g/ha, Preemergence): 3 | Plant response rating, Sugarbeets ([10]; Rate 125 g/ha, Postemergence): 7 | Sugarbeets plant response rating ([10]; Rate 125 g/ha, Preemergence): 6 | Plant response rating, Sugarbeets ([10]; Rate 250 g/ha, Postemergence): 9 | Plant response rating, Sugarbeets ([10]; Rate 250 g/ha, Preemergence): 6 | Plant response rating, Velvetleaf ([11]; Rate 62 g/ha, Postemergence): 5 | Velvetleaf plant response rating ([11]; Rate 62 g/ha, Preemergence): 0 | Plant response rating, Velvetleaf ([11]; Rate 125 g/ha, Postemergence): 6 | Velvetleaf plant response rating ([11]; Rate 125 g/ha, Preemergence): 0 | Plant response rating, Velvetleaf ([11]; Rate 250 g/ha, Postemergence): 7 | Plant response rating, Velvetleaf ([11]; Rate 250 g/ha, Preemergence): 0 | Plant response rating, Wheat ([12]; Rate 62 g/ha, Postemergence): 1 | Wheat plant response rating ([12]; Rate 62 g/ha, Preemergence): 0 | Plant response rating, Wheat ([12]; Rate 125 g/ha, Postemergence): 3 | Wheat plant response rating ([12]; Rate 125 g/ha, Preemergence): 0 | Plant response rating, Wheat ([12]; Rate 250 g/ha, Postemergence): 3 | Plant response rating, Wheat ([12]; Rate 250 g/ha, Preemergence): 0 | Plant response rating, Wild oats (wild oat (Avena fatua); Rate 62 g/ha, Postemergence): 3 | Wild oats plant response rating (wild oat (Avena fatua); Rate 62 g/ha, Preemergence): 2 | Plant response rating, Wild oats (wild oat (Avena fatua); Rate 125 g/ha, Postemergence): 5 | Wild oats plant response rating (wild oat (Avena fatua); Rate 125 g/ha, Preemergence): 3 | Plant response rating, Wild oats (wild oat (Avena fatua); Rate 250 g/ha, Postemergence): 5 | Plant response rating, Wild oats (wild oat (Avena fatua); Rate 250 g/ha, Preemergence): 5 | Plant response rating, Barnyardgrass [13, 16]: 2 | Plant response rating, Barnyardgrass [13, 17]: 1 | Plant response rating, Barnyardgrass [13, 18]: 2 | Plant response rating, Ducksalad [14, 16]: 1 | Plant response rating, Ducksalad [14, 17]: 2 | Plant response rating, Ducksalad [14, 18]: 2 | Plant response rating, Rice (rice (Oryza sativa); [16]): 1 | Plant response rating, Rice (rice (Oryza sativa); [17]): 0 | Plant response rating, Rice (rice (Oryza sativa); [18]): 0 | Plant response rating, S. Flatsedge [15, 16]: 9 | Plant response rating, S. Flatsedge [15, 17]: 1 | Plant response rating, S. Flatsedge [15, 18]: 2
